Measured values: publication PMC12564265, “Navigating the Deep Eutectic Solvent Landscape: Experimental and Machine Learning Solubility Explorations of Syringic, p-Coumaric, and Caffeic Acids” (International Journal of Molecular Sciences, 2025)

How the values were obtained:
[1] = Shake-flask solubility with spectrophotometric measurement in neat deep eutectic solvents; type: physicochemical
Procedure: (§1) In order to determine the solubility of the three studied phenolic acids in deep eutectic solvents, a very well-established shake-flask method coupled with spectrophotometric measurements was utilized. The initial procedure involved the preparation of various DESs, which was conducted by mixing their HBA and HBD counterparts in a glass vessel and heating the composition until the formation of a transparent, uniform liquid. […] For additional measurements, the DESs were mixed with water in varying proportions, creating aqueous DES systems. Saturated solutions of CAF, SYR, and COU were obtained by adding excess amounts of these compounds to test tubes containing either a neat deep eutectic solvent or its aqueous solution. Such samples were placed in the Orbital Shaker Incubator ES-20/60 from Biosan (Riga, Latvia) and heated for 24 h at 25 °C, 30 °C, 35 °C, and 40 °C (±0.1 °C) with simultaneous mixing at 60 rpm. Before measurements, the samples were filtered using a PTFE syringe filter from Qpore (Dallas, TX, USA) with a 0.22 μm pore size. In order to avoid possible precipitation of the saturated solutions at decreased temperatures, the test tubes, syringes, pipette tips, and filters were kept at a temperature identical to that of the samples. The spectrophotometric measurements required the preparation of calibration curves for the three APIs. This involved the preparation of a stock solution of each compound in methanol, which was later successfully diluted, and the obtained solutions of varying concentrations were measured using an A360 spectrophotometer from AOE Instruments (Shanghai, China). The wavelength range was set to 200-500 nm, and the resolution was 1 nm. The analytical wavelengths were determined to be 324 nm for caffeic acid, 273 nm for syringic acid, and 308 nm for p-coumaric acid. The final regression equations, obtained after averaging three distinct sets of measurements, are collected in Table 2 together with determination coefficients and limits of detection (LOD) and quantification (LOQ) for the calibration curves. The measurements of the samples were conducted with the same spectrophotometer and identical settings. Methanol was used for the dilution of the samples so that they could remain within the linearity range of the method. Complete spectra of the samples were recorded, but for the solubility determination, the absorbance values at a specific analytical wavelength were considered. These values were combined with the corresponding regression equations of the calibration curves and served for the calculation of the concentration of the three phenolic acids in the studied samples. The densities of such samples were also measured, and for this task 1 mL of each sample was weighed to a precision of 0.1 mg using an AS 110 R2.PLUS analytical balance from […] (Radom, Poland). The obtained densities enabled the calculation of mole fractions of CAF, SYR, and COU dissolved in the studied DESs. For each considered system, three distinct measurements were conducted, and the results were averaged.

[2] = Shake-flask solubility with spectrophotometric measurement in aqueous DES mixtures; type: physicochemical; settings: Bet – TEG 1:2 + water
Procedure: as §1

Mole fraction solubility ([1]; neat DES Bet - DEG, HBA:HBD molar ratio 1:1, 25 °C): 0.0235±0.0003 mole fraction | Mole fraction solubility ([1]; neat DES Bet - DEG, HBA:HBD molar ratio 1:2, 25 °C): 0.0311±0.0002 mole fraction | Mole fraction solubility ([1]; neat DES Bet - DEG, HBA:HBD molar ratio 1:4, 25 °C): 0.0283±0.0003 mole fraction | Mole fraction solubility ([1]; neat DES Bet - ETG, HBA:HBD molar ratio 1:1, 25 °C): 0.0132±0.0001 mole fraction | Mole fraction solubility ([1]; neat DES Bet - ETG, HBA:HBD molar ratio 1:2, 25 °C): 0.0274±0.0002 mole fraction | Mole fraction solubility ([1]; neat DES Bet - ETG, HBA:HBD molar ratio 1:4, 25 °C): 0.0205±0.0002 mole fraction | Mole fraction solubility ([1]; neat DES Bet - GLY, HBA:HBD molar ratio 1:1, 25 °C): 0.0203±0.0002 mole fraction | Mole fraction solubility ([1]; neat DES Bet - GLY, HBA:HBD molar ratio 1:2, 25 °C): 0.0358±0.0003 mole fraction | Mole fraction solubility ([1]; neat DES Bet - GLY, HBA:HBD molar ratio 1:4, 25 °C): 0.0300±0.0002 mole fraction | Mole fraction solubility ([1]; neat DES Bet - TEG, HBA:HBD molar ratio 1:1, 25 °C): 0.0317±0.0003 mole fraction | Mole fraction solubility ([1]; neat DES Bet - TEG, HBA:HBD molar ratio 1:2, 25 °C): 0.0474 mole fraction | Mole fraction solubility ([1]; neat DES Bet - TEG, HBA:HBD molar ratio 1:2, 25 °C, listed as syryngic acid): 0.0474±0.0003 mole fraction | Mole fraction solubility ([1]; neat DES Bet - TEG, HBA:HBD molar ratio 1:4, 25 °C): 0.0388±0.0003 mole fraction | Mole fraction solubility ([1]; neat DES ChCl - DEG, HBA:HBD molar ratio 1:1, 25 °C): 0.0230±0.0004 mole fraction | Mole fraction solubility ([1]; neat DES ChCl - DEG, HBA:HBD molar ratio 1:2, 25 °C): 0.0465±0.0004 mole fraction | Mole fraction solubility ([1]; neat DES ChCl - ETG, HBA:HBD molar ratio 1:1, 25 °C): 0.0186±0.0002 mole fraction | Mole fraction solubility ([1]; neat DES ChCl - ETG, HBA:HBD molar ratio 1:2, 25 °C): 0.0304±0.0002 mole fraction | Mole fraction solubility ([1]; neat DES ChCl - ETG, HBA:HBD molar ratio 1:4, 25 °C): 0.0244±0.0002 mole fraction | Mole fraction solubility ([1]; neat DES ChCl - TEG, HBA:HBD molar ratio 1:2, 25 °C): 0.0515 mole fraction | Mole fraction solubility ([2]; x*DES 0.1, 25°C): 0.0042±0.0001 mole fraction | Mole fraction solubility ([2]; x*DES 0.1, 30°C): 0.0046±0.0001 mole fraction | Mole fraction solubility ([2]; x*DES 0.1, 35°C): 0.0057±0.0001 mole fraction | Mole fraction solubility ([2]; x*DES 0.1, 40°C): 0.0067±0.0001 mole fraction | Mole fraction solubility ([2]; x*DES 0.2, 25°C): 0.0093±0.0001 mole fraction | Mole fraction solubility ([2]; x*DES 0.2, 30°C): 0.0105±0.0001 mole fraction | Mole fraction solubility ([2]; x*DES 0.2, 35°C): 0.0127±0.0001 mole fraction | Mole fraction solubility ([2]; x*DES 0.2, 40°C): 0.0148±0.0002 mole fraction | Mole fraction solubility ([2]; x*DES 0.3, 25°C): 0.0153±0.0001 mole fraction | Mole fraction solubility ([2]; x*DES 0.3, 30°C): 0.0173±0.0001 mole fraction | Mole fraction solubility ([2]; x*DES 0.3, 35°C): 0.0207±0.0002 mole fraction | Mole fraction solubility ([2]; x*DES 0.3, 40°C): 0.0239±0.0002 mole fraction | Mole fraction solubility ([2]; x*DES 0.4, 25°C): 0.0214±0.0002 mole fraction | Mole fraction solubility ([2]; x*DES 0.4, 30°C): 0.0247±0.0001 mole fraction | Mole fraction solubility ([2]; x*DES 0.4, 35°C): 0.0290±0.0002 mole fraction | Mole fraction solubility ([2]; x*DES 0.4, 40°C): 0.0341±0.0003 mole fraction | Mole fraction solubility ([2]; x*DES 0.5, 25°C): 0.0284±0.0002 mole fraction | Mole fraction solubility ([2]; x*DES 0.5, 30°C): 0.0318±0.0002 mole fraction | Mole fraction solubility ([2]; x*DES 0.5, 35°C): 0.0386±0.0002 mole fraction | Mole fraction solubility ([2]; x*DES 0.5, 40°C): 0.0457±0.0003 mole fraction | Mole fraction solubility ([2]; x*DES 0.6, 25°C): 0.0351±0.0003 mole fraction | Mole fraction solubility ([2]; x*DES 0.6, 30°C): 0.0396±0.0003 mole fraction | Mole fraction solubility ([2]; x*DES 0.6, 35°C): 0.0475±0.0009 mole fraction | Mole fraction solubility ([2]; x*DES 0.6, 40°C): 0.0568±0.0006 mole fraction | Mole fraction solubility ([2]; x*DES 0.7, 25°C): 0.0425±0.0003 mole fraction | Mole fraction solubility ([2]; x*DES 0.7, 30°C): 0.0483±0.0005 mole fraction | Mole fraction solubility ([2]; x*DES 0.7, 35°C): 0.0579±0.0010 mole fraction | Mole fraction solubility ([2]; x*DES 0.7, 40°C): 0.0702±0.0004 mole fraction | Mole fraction solubility ([2]; x*DES 0.8, 30°C): 0.0558±0.0006 mole fraction | Mole fraction solubility ([2]; x*DES 0.8, 35°C): 0.0673±0.0015 mole fraction | Mole fraction solubility ([2]; x*DES 0.8, 40°C): 0.0790±0.0009 mole fraction | Mole fraction solubility ([2]; x*DES 0.9, 25°C): 0.0488 mole fraction | Mole fraction solubility ([2]; x*DES 0.9, 25°C, listed as syryngic acid): 0.0488±0.0004 mole fraction
SMILES: COc1cc(C(=O)O)cc(OC)c1O [syringic acid, 4-hydroxy-3,5-dimethoxybenzoic acid]
